Measurements reported in ChEMBL document CHEMBL1157539, “Thousands of chemical starting points for antimalarial lead identification” (Nature, 2010).

These compounds were tested on Plasmodium falciparum (assay: GSK_TCMDC: Inhibition of Plasmodium falciparum 3D7 in whole erythrocytes, using parasite LDH activity as an index of growth.). Conditions: Plasmodium falciparum, 3D7.
Format: functional, organism-based
`O=C(Cn1c(CCc2cccc(F)c2F)nc(=O)c2ccccc21)N(CCCN1CCCCC1)Cc1ccc(-c2ccc(C(F)(F)F)cc2)cc1` showed an XC50 of 762 nM.
For `CCN1CCCC1CN(Cc1ccc(-c2ccc(C(F)(F)F)cc2)cc1)C(=O)Cn1c(CCc2cccc(F)c2F)nc(=O)c2ccccc21` (stereo unspecified), the XC50 was 1590 nM.
With `CCN(CC)CCN(Cc1ccc(-c2ccc(C(F)(F)F)cc2)cc1)C(=O)Cn1c(SCc2ccc(F)cc2)nc(=O)c2sccc21` the XC50 was 987 nM.
`Cc1[nH]c(C)c(-c2ccc(Oc3ccccc3)cc2)c(=O)c1Br` showed an XC50 of 46.8 nM.
Compound `c1ccc(Nc2nc(-c3ccccn3)cs2)nc1` has an XC50 of 1150 nM.
Work on `Cc1[nH]c(C)c(-c2ccc(Oc3ccc(F)cc3)cc2)c(=O)c1Cl` yielded an XC50 of 50.5 nM.
Compound `Cc1ccc2cc(NC(=O)c3cccc(C(=O)Nc4ccc5nc(C)ccc5c4)n3)ccc2n1` has an XC50 of 1170 nM.
`CCOC(=O)c1ccc(NC(=O)N[C@@H](Cc2ccccc2)C(=O)NC2CCN(Cc3ccc(O)c(OC)c3)C2)cc1` (stereo partly specified) was tested, and the XC50 was 989 nM.
In the case of `CC(C)[C@H](NC(=O)c1ccc(O)c(-c2ccc(Cl)c(Cl)c2)c1)C(=O)NCCN1CCCCC1`, the XC50 is reported as 339 nM.
For `Oc1ccc2[nH]cc(C3CCN(CCC(c4ccccc4)c4ccccc4)CC3)c2c1`, the XC50 was 994 nM.
Work on `COC(=O)c1ccc(C[C@@H](C)NC[C@H](O)c2cccc(C(F)(F)F)c2)cc1` yielded an XC50 of 790 nM.
`COc1ccc(NC(=O)CCNc2cc(C)nc(NCCOc3ccccc3)n2)cc1` gave an XC50 of 746 nM.
In the case of `CCNc1cc(C(=O)N[C@@H](Cc2ccccc2)[C@H](O)CNCc2cccc(OC)c2)c(OC)c(N2CCCCS2(=O)=O)c1`, the XC50 is reported as 689 nM.
`Cc1ccc(F)c(OCC2CCCN(c3ccc(C(=O)NC4CC4)cn3)C2)c1` (stereo unspecified) was tested, and the XC50 was 773 nM.
In the case of `CCN(C(=O)NC)C1c2cc(C#N)ccc2OC(C)(C)C1O` (stereo unspecified), the XC50 is reported as 304 nM.
`COc1ccc2ncn(-c3ccc(C(N)=O)c(OCc4ccccc4C(F)(F)F)c3)c2c1` showed an XC50 of 540 nM.
Compound `COc1ccc(NC(=O)c2ccc3cc4ccccc4cc3c2)cc1N1CCN(C)CC1` has an XC50 of 1030 nM.
For `c1ccc(-c2nc(NC3CCCCC3)cc(C3CC3)n2)nc1`, the XC50 was 728 nM.
Compound `O=C(N[C@@H](Cc1ccccc1)C(=O)NCCN1CCCC1)c1ccc(O)c(-c2ccc(Cl)c(Cl)c2)c1` has an XC50 of 800 nM.
`O=C(NCCCCCN1CCC(c2c[nH]c3ccccc23)CC1)Nc1cccc(Br)c1` was tested, and the XC50 was 1110 nM.
`Oc1c(C=Nn2cnnc2)sc2ccccc12` was tested, and the XC50 was 911 nM.
With `CNCCNCc1ccc(-c2ccc(-c3nc4cccc(C)c4[nH]3)s2)cc1` the XC50 was 732 nM.
`O=C(/C=C/c1ccc(Cl)cc1)NCCCCCN1CCN(C(=O)C=Cc2ccc(Cl)c(Cl)c2)CC1` was tested, and the XC50 was 987 nM.
Compound `CNC(=O)c1ccc2[nH]cc(C3CCN(CC4CCC(NC(=O)/C=C/c5ccccc5Cl)CC4)CC3)c2c1` (stereo unspecified) has an XC50 of 836 nM.
Compound `CN(C)CCOc1ccc(/C(=C(/CCCn2ccnc2)c2ccccc2)c2ccc(O)cc2)cc1` has an XC50 of 772 nM.
`Cn1cc(C2CCN(CCCCNC(=O)c3ccc(-c4ccc(C(F)(F)F)cc4)c(CO)c3)CC2)c2ccccc21` showed an XC50 of 1000 nM.
Compound `NCc1cccc(-c2ccc(CNC3CCN(Cc4ccccc4)CC3)cc2)c1` has an XC50 of 1700 nM.
Compound `CN(C)CCCNCc1ccc(-c2ccc(CNCCOc3ccccc3)cc2)cc1` has an XC50 of 18.6 nM.
In the case of `CCCCCc1cc(O)c2c(c1)OC(C)(C)c1ccncc1-2`, the XC50 is reported as 763 nM.
`CC(=O)N(Cc1ccccc1-c1cccc(CNCCc2ccccc2)c1)C1CCN(Cc2ccccc2)CC1` showed an XC50 of 1100 nM.
Compound `COc1ccc2ncc(F)c(CCN3CCC(NCc4cc(C)c5c(c4)OCCO5)CC3)c2n1` has an XC50 of 493 nM.
With `c1ccc(COc2ccc(C3CCCCC3)cc2)nc1` the XC50 was 774 nM.
`CCCCOc1cc2ncc(C(=O)OCC)c(O)c2cc1OCCCC` gave an XC50 of 201 nM.
Work on `N=C(N)c1ccc(NN=Cc2ccc(Oc3ccc(C(=N)N)cc3)cc2)cc1` yielded an XC50 of 90.2 nM.
`Cc1csc(NC(=O)c2cn(-c3ccccc3)nc2-c2cccs2)n1` showed an XC50 of 911 nM.
`Cc1[nH]c(C)c(-c2ccc(OCc3cc(C(F)(F)F)cc(C(F)(F)F)c3)nc2)c(=O)c1Cl` showed an XC50 of 108 nM.
`CC(C)CN1CCN(CCNc2c3ccccc3nc3ccccc23)CC1` gave an XC50 of 818 nM.
Work on `COc1ccc(NC(=O)N2CCCN(CCCCCNC(=O)/C=C/c3ccc(C(F)(F)F)cc3)CC2)cc1Cl` yielded an XC50 of 980 nM.
`CC(C)C(=O)NC(Nc1ccc([N+](=O)[O-])cc1)C(Cl)(Cl)Cl` (stereo unspecified) was tested, and the XC50 was 835 nM.
`CC1(C)NC(N)=NC(=N)N1OCCCCOc1ccc(Cl)cc1C1CCCCC1` showed an XC50 of 3.2 nM.
Work on `CN(C)CC(O)C(O)(c1ccccc1)c1ccc(F)cc1` (stereo unspecified) yielded an XC50 of 1150 nM.
`CCCCSc1c(CNCCCCCCNCc2ccc3ccccc3c2SCCCC)ccc2ccccc12` showed an XC50 of 999 nM.
`O=C(c1ccc([N+](=O)[O-])o1)N1CCN(c2nc3c(Cl)cccc3s2)CC1` showed an XC50 of 980 nM.
Compound `Cc1cccc2nc(-c3ccc(-c4cccc(NC(=O)NCc5cccc(F)c5)c4)s3)[nH]c12` has an XC50 of 760 nM.
Compound `CS(=O)(=O)NCCCNCc1ccc(-c2ccc(-c3nc4cc(F)ccc4[nH]3)s2)cc1` has an XC50 of 811 nM.
In the case of `CN(c1ccc(C(=O)N[C@@H](CCC(=O)O)C(=O)O)cc1)S(=O)(=O)c1ccc2nc(N)[nH]c(=O)c2c1`, the XC50 is reported as 149 nM.
For `Cc1ccc(NC(=O)Nc2ccccc2)cc1-c1ccc(C(=O)Nc2ccncc2)cc1`, the XC50 was 240 nM.
`CC(C)C[C@@H](/C=N/N1CCOC1=O)NC(=O)[C@H](CC(C)C)NC(=O)c1ccc(OCCN2CCOCC2)cc1` gave an XC50 of 215 nM.
With `CC(C)Cc1nc2nc(N)nc(N)c2cc1C(C)C` the XC50 was 226 nM.
`C=CCc1ccc(C[C@H](NC(=O)OC(C)(C)C)C(=O)OC)cc1` gave an XC50 of 814 nM.
`CC(=O)Nc1ccc(OCCN(CC(C)(C)C)c2ccc(C#N)c(C(F)(F)F)c2)c(Cl)c1` gave an XC50 of 493 nM.
`Nc1c2c(nc3ccccc13)C(=Cc1ccc(O)cc1)CCC2` gave an XC50 of 176 nM.
`COc1ccc(CCNC(=O)c2cnc3c(c2)nc(-c2c[nH]c(-c4ccccc4)n2)n3CCc2c[nH]cn2)cc1` showed an XC50 of 970 nM.
With `Cc1cc(N(C)C)nc(Nc2ccc(NC(=O)c3ccccc3Cl)cc2)n1` the XC50 was 1020 nM.
Work on `Cc1[nH]c(C)c(-c2ccc(OCc3ccc(F)cc3)cc2)c(=O)c1Cl` yielded an XC50 of 566 nM.
For `O=C(CCc1c[nH]cn1)Nc1ccc(-c2cccc(-c3nc4ccccc4[nH]3)c2)cc1`, the XC50 was 348 nM.
Work on `CC(C)n1ncc2c(C(=O)N3CCCCCC3)cc(-c3ccccc3)nc21` yielded an XC50 of 789 nM.
`CC(=O)Nc1ccc(C(=O)NC2CCN(c3ccnc4cc(Cl)ccc34)C2)cc1` (stereo unspecified) was tested, and the XC50 was 806 nM.
Compound `CN(C)CCNC(=O)[C@H](CC1CCCCC1)NC(=O)c1ccc(O)c(-c2ccc(Cl)c(Cl)c2)c1` has an XC50 of 775 nM.
For `CCOC(=O)NC1=NC(C)(C)N(OCc2cccc3c2ccc2ccccc23)C(NC(=O)OCC)=N1`, the XC50 was 172 nM.
Compound `Cc1cc(N2CCN(C)CC2)nc2ccc(NC(=O)c3cccc(N(C)C)c3)cc12` has an XC50 of 954 nM.
Work on `Cc1nc(C(C)Nc2nncc(-c3ccc(Cl)cc3)n2)cs1` (stereo unspecified) yielded an XC50 of 1330 nM.
In the case of `Cc1ccccc1C1CCN(C2CCC(NC(=O)/C=C/c3ccc(C#N)cc3)CC2)CC1` (stereo unspecified), the XC50 is reported as 1170 nM.
For `O=C(Cc1c[nH]cn1)Nc1cccc(-c2ccc(-c3nc4ccccc4[nH]3)cc2)c1`, the XC50 was 761 nM.
For `OCC1CCN(Cc2ccc(-c3ccc(-c4nc5cc(F)ccc5[nH]4)cc3)cc2)CC1`, the XC50 was 845 nM.
`Cc1cc(NCCCN2CCCC2=O)n2c(nc3ccccc32)c1C#N` showed an XC50 of 858 nM.
Compound `Cc1cc(NC(=O)[C@@H](Nc2ccc(C#N)c3ccccc23)C2CCCCC2)ccc1F` has an XC50 of 892 nM.
For `COc1cccc(-c2cc(C(=O)Nc3ccc4[nH]c(-c5ccccc5)nc4c3)[nH]n2)c1`, the XC50 was 836 nM.
Work on `Cc1nc2ccccc2n1C1CC2CCC(C1)N2CCCC1(c2ccccc2)CCN(C(=O)OCc2ccccc2)CC1` (stereo unspecified) yielded an XC50 of 998 nM.
In the case of `Nc1ccc(-c2nc3cc(Oc4ccc5[nH]c(-c6ccc(N)cc6)nc5c4)ccc3[nH]2)cc1`, the XC50 is reported as 719 nM.
`CS(=O)(=O)CCN(CCS(C)(=O)=O)Cc1ccc(-c2ccc3ncnc(Nc4ccc(OCc5cccc(F)c5)c(Cl)c4)c3c2)o1` gave an XC50 of 1020 nM.
`CC1(C)CC(NCCCCCCCOc2ccc(OCc3ccccc3)cc2)CC(C)(C)N1` was tested, and the XC50 was 827 nM.
`COc1ccc(C=NNc2ccnc3cc(F)c(C)cc23)c2ccccc12` gave an XC50 of 771 nM.
For `Cc1ccc(Cl)c2sc(N3CCN(C(=O)c4ccc([N+](=O)[O-])o4)CC3)nc12`, the XC50 was 325 nM.
Compound `O=C(Nc1ccccc1)N(Cc1cccc(-c2ccc(CNC3CCCC3)cc2)c1)C1CCN(Cc2ccccc2)CC1` has an XC50 of 394 nM.
For `O=C(/C=C/c1ccc(Cl)c(Cl)c1)NCCC1CCC(N2CCC(c3c[nH]c4ccccc34)CC2)CC1` (stereo unspecified), the XC50 was 197 nM.
`Cc1cc2c(NC(=O)NC3CCN(CCc4cccc(Cl)c4)CC3)cccc2cn1` showed an XC50 of 370 nM.
`O=C(/C=C/c1ccc(Cl)c(Cl)c1)NCCCCCN1CCC(CCNC(=O)/C=C/c2cc(C(F)(F)F)ccc2F)CC1` gave an XC50 of 765 nM.
For `O=C1OC(c2ccccc2)(c2ccccn2)CN1C1CCN(Cc2cccn2-c2ccc(Cl)cc2)CC1` (stereo unspecified), the XC50 was 475 nM.
With `CC(C)(C)Oc1ccc(CC2NC3(C(=O)N(Cc4ccc(C(C)(C)C)cc4)c4ccccc43)C3C(=O)N(c4ccc(Br)cc4)C(=O)C23)cc1` (stereo unspecified) the XC50 was 717 nM.
Compound `O=C(O)c1cccc2c(-c3ccncc3)cccc12` has an XC50 of 937 nM.
Compound `C[C@@H](N/C(=N\c1ccc(-c2ccccc2)cc1)Nc1ccc(C#N)cc1O)c1ccc(Br)cc1` has an XC50 of 699 nM.
`Cc1nc(-c2ccc3c(c2)CCN(CCC2CCC(NC(=O)c4cc5cccc(Cl)c5[nH]4)CC2)CC3)no1` (stereo unspecified) was tested, and the XC50 was 633 nM.
`Cc1ccc(-c2nn3c(O)c4c(nc3c2C)CCCC4)cc1` showed an XC50 of 217 nM.
Compound `CCCC1(C)CSc2ccccc2C(c2ccccc2)N1` (stereo unspecified) has an XC50 of 707 nM.
For `O=[N+]([O-])c1cccc(CNCC2CCN(CCc3ccccc3)CC2)c1`, the XC50 was 785 nM.
In the case of `CCCC(N)C(=O)NC1CCN(c2c(F)c(N)c3c(=O)c(C(=O)O)cn4c3c2Oc2ccccc2-4)C1` (stereo unspecified), the XC50 is reported as 359 nM.
In the case of `Cc1ccc(NC(=O)c2c(C)noc2-c2snnc2C)cc1`, the XC50 is reported as 1370 nM.
With `O=C(NC(Nc1ccc([N+](=O)[O-])cc1)C(Cl)(Cl)Cl)c1ccc(Cl)cc1` (stereo unspecified) the XC50 was 782 nM.
With `Cc1c(-c2cccc(C(C)(C)NCCCN3CCCCC3)c2)cnc(N)c1C` the XC50 was 938 nM.
`O=[N+]([O-])c1cccc(CNCC2CCN(Cc3ccc4ccccc4c3)CC2)c1` gave an XC50 of 876 nM.
Work on `COc1ccc2ncc(F)c(CCN3CCC(NCc4cc(OC)c5c(c4)OCCO5)CC3)c2n1` yielded an XC50 of 572 nM.
`CC(Cc1ccc(NS(=O)(=O)c2ccc(CC(C)NCCc3cccc(Cl)c3)cc2)cc1)NCCc1cccc(Cl)c1` (stereo unspecified) gave an XC50 of 775 nM.
For `O=C(NCC1CCC(C(=O)NCc2cccc3ccccc23)CC1)c1ccc(O)c(-c2ccc(Cl)c(Cl)c2)c1` (stereo unspecified), the XC50 was 749 nM.
Compound `Cc1ccccc1C1CCN(C2CCC(NC(=O)c3ccc(-c4ccccn4)s3)CC2)CC1` (stereo unspecified) has an XC50 of 1180 nM.
In the case of `CCc1c(CCNCCCCCCNC(C)Cc2ccc3c(c2CC)OCO3)ccc(OC)c1OC` (stereo unspecified), the XC50 is reported as 870 nM.
